Measured values taken from patent publication US6890954B1, “Uses of 2-bromopalmitate in the treatment of autoimmune disease” (priority 1999, dated 2005).

Key:
Type in all cases: cell-based
Fyn [1] = assay: Localization of Fyn to Triton X-100 insoluble fractions in COS-1 cells; conditions: COS-1, 1% Triton X-100 extraction; untreated: majority detergent resistant
Method: (§1) Isolation of Triton X-100 resistant and soluble fractions was carried out as described previously (12). Isolation of detergent resistant microdomains by sucrose gradients were carried out as follows (19): Jurkat cells (5×10^7) were treated with 2-bromopalmitate, activated with OKT3 mAb as described above, and lysed in 1 ml lysis buffer (25 mM MES pH 6.5, 150 mM NaCl, 0.5% Triton X-100, 1 mM Na3VO4) supplemented with protease inhibitors for 30 minutes at 0° C. After homogenizing 10 times with a loose fit Dounce homogenizer, lysates were mixed with 1 ml 85% sucrose in MBS (25 mM MES pH 6.5, 150 mM NaCl), and overlayered with 6 ml 30% sucrose in MBS, then with 4 ml 5% sucrose in MBS. Following centrifugation for 16 hours at 145,000 g in an SW40 rotor, 1 ml fractions were collected and analyzed by PAGE and immunoblotting with anti-Fyn, anti-LAT, or anti-Lck antibodies.
Previous experiments have shown that following rapid membrane binding of newly synthesized Fyn, there is a slower partitioning of Fyn (10-20 minutes) to regions of the plasma membrane that are resistant to Triton X-100 extraction at 4° C. (12). Therefore the effect of 2-bromopalmitate on the localization of Fyn to Triton X-100 insoluble fractions was examined. Transfected COS-1 cells were left untreated or treated with 2-bromopalmitate as described above. […]

MAP kinase = assay: Activation of MAP kinase in Jurkat cells (pERK immunoblot); conditions: OKT3 activated, pERK1 blot
Method: Jurkat cells were treated with 2-bromopalmitate and activated as described above. Lysates were analyzed for the presence of active MAP kinase by immunoblotting with a pERK antibody, and for total MAP kinase by immunoblotting with an anti MAPK antibody.
One of the proximal events following T cell receptor engagement is activation of the MAP Kinase pathway. The ability of 2-bromopalmitate to inhibit activation of MAP kinase was examined in Jurkat cells. Cells were cultured with or without 2bromo-palmitate and activated as described above. Cell lysates were subjected to SDS-PAGE and immunoblotted with anti-active MAPK kinase (pERK1). As depicted in FIG. 7, 2-bromopalmitate inhibited the activation of MAPK kinase by 70%. The levels of total MAPK kinase remained unchanged (FIG. 7).

PI3K = assay: CD3-mediated tyrosine phosphorylation of PI3K in Jurkat cells; conditions: 100 μM 3 hours, OKT3
Method: (§2) Jurkat T cells (2×10^6−1×10^7) were centrifuged at 1,000×g for 5 minutes, rinsed with RPMI, resuspended in RPMI supplemented with 2% dialyzed FBS, 0.5% defatted BSA, and incubated with or without 100 μM 2-bromopalmitate at 8×10^5 cells/ml for 3 hours. The cells were centrifuged, washed with RPMI and resuspended in RPMI at 1×10^7−1×10^8 cells/ml. The cells were then activated with anti-CD3 OKT3 mAb (0.3 mg/ml) for 3 min at 37° C., quickly spun down, washed once with cold RPMI and once with cold STE, and lysed in RIPA Samples were solubilized in 1× sample buffer containing 5% β-mercaptoethanol and subjected to SDS-PAGE, followed by immunoblotting with anti-phosphotyrosine antibody (PY99). For analysis of specific proteins, RIPA lysates were immunoprecipitated with the specific antibodies O/N, and immunoblotted for phosphotyrosine. Alternatively, proteins were immunoprecipitated with agarose-conjugated anti phosphotyrosine antibody and blotted for the specific proteins.
(§3) In order to identify the individual proteins whose tyrosine phosphorylation is affected by 2-bromopalmitate, lysates were immunoprecipitated with a panel of specific antibodies, and immunoblotted for phosphotyrosine. Alternatively, lysates were immunoprecipitated with an antiphosphotyrosine antibody, and blotted with antibodies to specific proteins.

Fyn [2] = assay: DRM (raft) localization in activated Jurkat cells, sucrose gradient: Fyn; conditions: 100 μM 3 hours, OKT3 activated, control 88%
Method: as §1
The ability of 2-bromopalmitate to inhibit localization of palmitoylated proteins to detergent resistant microdomains in activated Jurkat cells was examined next. Cells were either left untreated or treated with 100 μM 2-bromopalmitate for 3 hours, washed, resuspended in serum-free media, and the TCR was activated with OKT3 mAb. Activated cells were extracted with Triton X-100 containing buffer. […] Each fraction was analyzed by immunoblotting with specific antibodies. […]

ZAP-70 = assay: CD3-mediated tyrosine phosphorylation of ZAP-70 in Jurkat cells; conditions: 100 μM 3 hours, OKT3
Method: as §2, §3

SMILES: CCCCCCCCCCCCCCC(Br)C(=O)O (centres unmarked) [2-bromopalmitate]
- Fyn association with detergent resistant vs soluble fraction (Fyn [1]): mostly soluble
- activation of MAPK kinase inhibited (MAP kinase): 70%
- PI3K phosphorylation inhibited (PI3K): 50%
- Fyn found in the rafts (Fyn [2]): 59%
- ZAP-70 phosphorylation inhibited (ZAP-70): 50%
